Earlier results, collected in patent US20110168623A1, “FEED SIDE PASSAGE MATERIAL AND SPIRAL SEPARATION MEMBRANE ELEMENT” (priority 2008, published 2011).

## Oc1cc(Cl)ccc1Oc1ccc(Cl)cc1Cl [triclosan, 2,4,4′-trichloro-2′-hydroxy diphenyl ether]
Pseudomonas aeruginosa
  antibacterial effect on Pseudomonas aeruginosa: small or comparatively small antibacterial effect
Aspergillus niger
  antibacterial effect on Aspergillus niger: small or comparatively small antibacterial effect
Candida yeast
  antibacterial effect on Candida yeast: small or comparatively small antibacterial effect
